# According to patent publication US8680159B2, “Bradykinin 1 receptor modulating compounds” (Gruenenthal GmbH, priority 2010, dated 2014):
# Target: T1, B1R receptor of the rat (CHO K1 cells stably transfected with the B1R gene of the rat) (Rattus norvegicus, UniProt P97583)
# T1 construct: expressed in transfected cells; host or cells: CHO K1 cells (Chinese hamster ovary), stably transfected
# T1 sequence (P97583 1-337): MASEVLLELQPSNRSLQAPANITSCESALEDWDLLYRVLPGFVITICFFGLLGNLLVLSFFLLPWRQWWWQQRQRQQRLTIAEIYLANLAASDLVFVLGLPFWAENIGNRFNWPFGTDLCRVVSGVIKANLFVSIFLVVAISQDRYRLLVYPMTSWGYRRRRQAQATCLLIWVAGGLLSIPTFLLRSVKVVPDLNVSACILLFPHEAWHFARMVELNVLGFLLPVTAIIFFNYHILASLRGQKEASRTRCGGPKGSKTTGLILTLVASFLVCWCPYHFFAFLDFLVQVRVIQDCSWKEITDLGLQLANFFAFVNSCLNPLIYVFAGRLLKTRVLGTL
# Assay: Functional study on the bradykinin receptor 1 (B1R), Ca2+ fluorescence (Fluo-4) FLIPR/Novostar assay, rB1R cells
# Assay type: cell-based
# Conditions: CHO-K1, 10 μM, library compounds CC_H, read-out: % Inhibition (r-B1R) at 10 μM
# Outline: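 Stably transfected CHO K1 cells carrying human or rat B1R were Fluo-4 loaded and Ca2+ fluorescence read by FLIPR or Novostar. Compounds were added first at 10 μM for % activation, then the EC80 agonist was applied after 6-20 min (human: Lys-Des-Arg9-bradykinin; rat: Des-Arg9-bradykinin). % inhibition is relative to maximum achievable inhibition, and IC50 comes from concentration series.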
row,SMILES,inhibition at 10 µM [%]
1,"CN(C(=O)c1ccc2c(c1)C(NC(=O)c1ccccc1Cl)CC2)C1CCN(c2ccnc(S(C)(=O)=O)n2)CC1 (stereo not shown) [CC_H-609, 3-[(2-Chloro-benzoyl)amino]-N-methyl-N-[1-(2-methylsulfonyl-pyrimidin-4-yl)-piperidin-4-yl]-2,3-dihydro-1H-indene-5-carboxylic acid amide]",102
2,"CN(C(=O)c1ccc2c(c1)C(NC(=O)c1ccccc1Cl)CC2)C1CCN(c2ccnc(N3CCCC3)n2)CC1 (stereo not shown) [CC_H-612, 3-[(2-Chloro-benzoyl)amino]-N-methyl-N-[1-(2-pyrrolidin-1-yl-pyrimidin-4-yl)-piperidin-4-yl]-2,3-dihydro-1H-indene-5-carboxylic acid amide]",101
3,"CN(C(=O)c1ccc2c(c1)C(NC(=O)CCC1CCCC1)CC2)C1CCN(c2ccnc(S(C)(=O)=O)n2)CC1 (stereo not shown) [CC_H-613, 3-(3-Cyclopentyl-propanoylamino)-N-methyl-N-[1-(2-methylsulfonyl-pyrimidin-4-yl)-piperidin-4-yl]-2,3-dihydro-1H-indene-5-carboxylic acid amide]",90
4,"CN(C)C(=O)c1cc(N2CCC(N(C)C(=O)c3ccc4c(c3)C(NC(=O)CCC3CCCC3)CC4)CC2)ccn1 (stereo not shown) [CC_H-615, 4-[4-[[3-(3-Cyclopentyl-propanoylamino)-2,3-dihydro-1H-inden-5-carbonyl]-methyl-amino]-piperidin-1-yl]-N,N-dimethyl-pyridine-2-carboxylic acid amide]",65
5,"CN(C(=O)c1ccc2c(c1)C(NC(=O)c1ccccc1Cl)CC2)C1CCN(c2ccnc(C(C)(C)C)n2)CC1 (stereo not shown) [CC_H-616, N-[1-(2-tert-Butyl-pyrimidin-4-yl)-piperidin-4-yl]-3-[(2-chloro-benzoyl)amino]-N-methyl-2,3-dihydro-1H-indene-5-carboxylic acid amide]",101
6,"Cc1ncc2n1C(=O)N(C1CCC(N(C)C(=O)c3ccc4c(c3)C(NC(=O)c3ccccc3Cl)CC4)CC1)C2 (stereo not shown) [CC_H-618, 3-[(2-Chloro-benzoyl)amino]-N-methyl-N-[4-(5-methyl-3-oxo-1,2-dihydro-imidazo[5,1-e]imidazol-2-yl)-cyclohexyl]-2,3-dihydro-1H-indene-5-carboxylic acid amide]",84
7,"CN(C(=O)c1ccc2c(c1)C(NC(=O)CCC1CCCC1)CC2)C1CCN(c2ccnc(N3CCCC3)n2)CC1 (stereo not shown) [CC_H-620, 3-(3-Cyclopentyl-propanoylamino)-N-methyl-N-[1-(2-pyrrolidin-1-yl-pyrimidin-4-yl)-piperidin-4-yl]-2,3-dihydro-1H-indene-5-carboxylic acid amide]",102
8,"CN(C(=O)c1ccc2c(c1)C(NC(=O)CCC1CCCC1)CC2)C1CCN(c2ccnc(C(C)(C)C)n2)CC1 (stereo not shown) [CC_H-624, N-[1-(2-tert-Butyl-pyrimidin-4-yl)-piperidin-4-yl]-3-(3-cyclopentyl-propanoylamino)-N-methyl-2,3-dihydro-1H-indene-5-carboxylic acid amide]",96
9,"CN(C(=O)c1ccc2c(c1)C(NC(=O)c1ccccc1Cl)CC2)C1CCN(c2ccnc(C3CC3)n2)CC1 (stereo not shown) [CC_H-627, 3-[(2-Chloro-benzoyl)amino]-N-[1-(2-cyclopropyl-pyrimidin-4-yl)-piperidin-4-yl]-N-methyl-2,3-dihydro-1H-indene-5-carboxylic acid amide]",100
10,"CN(C)c1nccc(N2CCC(N(C)C(=O)c3ccc4c(c3)C(NC(=O)CCC3CCCC3)CC4)CC2)n1 (stereo not shown) [CC_H-629, 3-(3-Cyclopentyl-propanoylamino)-N-[1-(2-dimethylamino-pyrimidin-4-yl)-piperidin-4-yl]-N-methyl-2,3-dihydro-1H-indene-5-carboxylic acid amide]",101
11,"CN(C(=O)c1ccc2c(c1)C(NC(=O)CCC1CCCC1)CC2)C1CCN(c2ccnc(C3CC3)n2)CC1 (stereo not shown) [CC_H-630, 3-(3-Cyclopentyl-propanoylamino)-N-[1-(2-cyclopropyl-pyrimidin-4-yl)-piperidin-4-yl]-N-methyl-2,3-dihydro-1H-indene-5-carboxylic acid amide]",95
12,"CN(C(=O)c1ccc2c(c1)C(NC(=O)c1ccccc1Cl)CC2)C1CCN(c2ncncc2F)CC1 (stereo not shown) [CC_H-631, 3-[(2-Chloro-benzoyl)amino]-N-[1-(5-fluoro-pyrimidin-4-yl)-piperidin-4-yl]-N-methyl-2,3-dihydro-1H-indene-5-carboxylic acid amide]",94
13,"CN(C(=O)c1ccc2c(c1)C(NC(=O)CCC1CCCC1)CC2)C1CCN(c2ncncc2F)CC1 (stereo not shown) [CC_H-632, 3-(3-Cyclopentyl-propanoylamino)-N-[1-(5-fluoro-pyrimidin-4-yl)-piperidin-4-yl]-N-methyl-2,3-dihydro-1H-indene-5-carboxylic acid amide]",95
14,"CN(C(=O)c1ccc2c(c1)C(NC(=O)c1ccccc1Cl)CC2)C1CCN(c2ccnnc2)CC1 (stereo not shown) [CC_H-633, 3-[(2-Chloro-benzoyl)amino]-N-methyl-N-(1-pyridazin-4-yl-piperidin-4-yl)-2,3-dihydro-1H-indene-5-carboxylic acid amide]",103
15,"CN(C(=O)c1ccc2c(c1)C(NC(=O)CCC1CCCC1)CC2)C1CCN(c2ccnnc2)CC1 (stereo not shown) [CC_H-634, 3-(3-Cyclopentyl-propanoylamino)-N-methyl-N-(1-pyridazin-4-yl-piperidin-4-yl)-2,3-dihydro-1H-indene-5-carboxylic acid amide]",93

# More lines, now with the values ahead:
row,inhibition at 10 µM [%],SMILES
1,102,"Cc1cc(N2CCC(N(C)C(=O)c3ccc4c(c3)C(NC(=O)c3cccnc3C(F)(F)F)CC4)CC2)nc(N(C)C)n1 (stereo not shown) [CC_H-604, N-[6-[[1-(2-Dimethylamino-6-methyl-pyrimidin-4-yl)-piperidin-4-yl]-methyl-carbamoyl]-2,3-dihydro-1H-inden-1-yl]-2-(trifluoromethyl)-pyridine-3-carboxylic acid amide]"
2,99,"CN(C(=O)c1ccc2c(c1)C(NC(=O)c1cccnc1C(F)(F)F)CC2)C1CCN(c2ccnc(C(C)(C)C)n2)CC1 (stereo not shown) [CC_H-606, N-[6-[[1-(2-tert-Butyl-pyrimidin-4-yl)-piperidin-4-yl]-methyl-carbamoyl]-2,3-dihydro-1H-inden-1-yl]-2-(trifluoromethyl)-pyridine-3-carboxylic acid amide]"
3,96,"Cc1ncc2n1C(=O)N(C1CCC(N(C)C(=O)c3ccc4c(c3)C(NC(=O)c3cccnc3C(F)(F)F)CC4)CC1)C2 (stereo not shown) [CC_H-607, N-[6-[Methyl-[4-(5-methyl-3-oxo-1,2-dihydro-imidazo[5,1-e]imidazol-2-yl)-cyclohexyl]-carbamoyl]-2,3-dihydro-1H-inden-1-yl]-2-(trifluoromethyl)-pyridine-3-carboxylic acid amide]"
4,102,"CN(C)c1nccc(N2CCC(N(C)C(=O)c3ccc4c(c3)C(NC(=O)c3cccnc3C(F)(F)F)CC4)CC2)n1 (stereo not shown) [CC_H-608, N-[6-[[1-(2-Dimethylamino-pyrimidin-4-yl)-piperidin-4-yl]-methyl-carbamoyl]-2,3-dihydro-1H-inden-1-yl]-2-(trifluoromethyl)-pyridine-3-carboxylic acid amide]"
5,101,"CN(C(=O)c1ccc2c(c1)C(NC(=O)c1cccnc1C(F)(F)F)CC2)C1CCN(c2ccnc(C3CC3)n2)CC1 (stereo not shown) [CC_H-610, N-[6-[[1-(2-Cyclopropyl-pyrimidin-4-yl)-piperidin-4-yl]-methyl-carbamoyl]-2,3-dihydro-1H-inden-1-yl]-2-(trifluoromethyl)-pyridine-3-carboxylic acid amide]"
6,101,"Cc1cc(N2CCC(N(C)C(=O)c3ccc4c(c3)C(NC(=O)c3ccccc3Cl)CC4)CC2)nc(N(C)C)n1 (stereo not shown) [CC_H-614, 3-[(2-Chloro-benzoyl)amino]-N-[1-(2-dimethylamino-6-methyl-pyrimidin-4-yl)-piperidin-4-yl]-N-methyl-2,3-dihydro-1H-indene-5-carboxylic acid amide]"
7,98,"CN(C(=O)c1ccc2c(c1)C(NC(=O)c1cccnc1C(F)(F)F)CC2)C1CCN(c2ncncc2F)CC1 (stereo not shown) [CC_H-621, N-[6-[[1-(5-Fluoro-pyrimidin-4-yl)-piperidin-4-yl]-methyl-carbamoyl]-2,3-dihydro-1H-inden-1-yl]-2-(trifluoromethyl)-pyridine-3-carboxylic acid amide]"
8,100,"Cc1cc(N2CCC(N(C)C(=O)c3ccc4c(c3)C(NC(=O)CCC3CCCC3)CC4)CC2)nc(N(C)C)n1 (stereo not shown) [CC_H-622, 3-(3-Cyclopentyl-propanoylamino)-N-[1-(2-dimethylamino-6-methyl-pyrimidin-4-yl)-piperidin-4-yl]-N-methyl-2,3-dihydro-1H-indene-5-carboxylic acid amide]"
9,101,"CN(C)c1nccc(N2CCC(N(C)C(=O)c3ccc4c(c3)C(NC(=O)c3ccccc3Cl)CC4)CC2)n1 (stereo not shown) [CC_H-623, 3-[(2-Chloro-benzoyl)amino]-N-[1-(2-dimethylamino-pyrimidin-4-yl)-piperidin-4-yl]-N-methyl-2,3-dihydro-1H-indene-5-carboxylic acid amide]"
10,99,"CN(C(=O)c1ccc2c(c1)C(NC(=O)c1cccnc1C(F)(F)F)CC2)C1CCN(c2ccnnc2)CC1 (stereo not shown) [CC_H-628, N-[6-[Methyl-(1-pyridazin-4-yl-piperidin-4-yl)-carbamoyl]-2,3-dihydro-1H-inden-1-yl]-2-(trifluoromethyl)-pyridine-3-carboxylic acid amide]"
